{
  "source": "patent US10851067B2",
  "about": "“Kv7 channel activators compositions and methods of use” (Knopp Biosciences LLC, priority 2018, dated 2020)",
  "data": [
    {"molecular_target": "Kv7.2/7.3 (Homo sapiens, UniProt O43525+O43526)", "experiment": "Kv7.2/7.3 Activation Assay, QPatch single concentration screen", "type": "cell-based", "parameters": "host or cells: HEK cells, tetracycline-inducible expression", "settings": "Kv7.2/Kv7.3 co-expressing HEK cells, compound concentration 3 μM, steady-state current at end of 2 s pulse to −30 mV", "summary_of_the_method": "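Tetracycline-induced HEK cells expressing human Kv7.2/7.3, recorded 24 h post-induction by automated planar patch clamp. From −80 mV, 2 s steps to −30 mV then 100 ms to −120 mV; compound tested at 3 μM (0.1% DMSO). Steady-state current at end of −30 mV step gives fold increase over baseline.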", "values": [
      {"smiles": "CC(C)(C)CC(=O)Nc1nc2cc(F)cc(F)c2n1C1CCC1", "note": "[Example 357, N-(1-cyclobutyl-5,7-difluoro-1H-benzo[d]imidazol-2-yl)-3,3-dimethylbutanamide]", "Kv7.2/7.3 Activity: increase over baseline in current": "+++ (>4 (+++) fold increase over baseline)"},
      {"smiles": "CC(C)(CC(=O)Nc1nc2c(F)cc(C#N)cc2n1C(C)(C)C)C(F)F", "note": "[Example 364, N-(1-(tert-butyl)-6-cyano-4-fluoro-1H-benzo[d]imidazol-2-yl)-4,4-difluoro-3,3-dimethylbutanamide]", "Kv7.2/7.3 Activity: increase over baseline in current": "++ (3-3.9 (++))"},
      {"smiles": "CC(C)(C)CC(=O)Nc1nc2ccc(Cl)c(C#N)c2n1C1CCC1", "note": "[Example 439, N-(6-chloro-7-cyano-1-cyclobutyl-1H-benzo[d]imidazol-2-yl)-3,3-dimethylbutanamide]", "Kv7.2/7.3 Activity: increase over baseline in current": "+ (1.2-2.9 (+))"},
      {"smiles": "COc1cccc2nc(NC(=O)CC(C)(C)C3CC3)n(C3CCC3)c12", "note": "[Example 458, N-(1-cyclobutyl-7-methoxy-1H-benzo[d]imidazol-2-yl)-3-cyclopropyl-3-methylbutanamide]", "Kv7.2/7.3 Activity: increase over baseline in current": "+++ (>4 (+++) fold increase over baseline)"},
      {"smiles": "CC(C)(C)CC(=O)Nc1nc2ccc(OC(F)F)cc2n1C(C)(C)C", "note": "[Example 393, N-(1-(tert-butyl)-6-(difluoromethoxy)-1H-benzo[d]imidazol-2-yl)-3,3-dimethylbutanamide]", "Kv7.2/7.3 Activity: increase over baseline in current": "+++ (>4 (+++) fold increase over baseline)"},
      {"smiles": "COCc1c(Cl)ccc2nc(NC(=O)CC(C)(C)C)n(C3CCC3)c12", "note": "[Example 399, N-(6-chloro-1-cyclobutyl-7-(methoxymethyl)-1H-benzo[d]imidazol-2-yl)-3,3-dimethylbutanamide]", "Kv7.2/7.3 Activity: increase over baseline in current": "+++ (>4 (+++) fold increase over baseline)"},
      {"smiles": "CC(C)(O)c1cc(F)c2nc(NC(=O)CC(C)(C)C(F)F)n(C3CCC3)c2c1", "note": "[Example 456, N-(1-cyclobutyl-4-fluoro-6-(2-hydroxypropan-2-yl)-1H-benzo[d]imidazol-2-yl)-4,4-difluoro-3,3-dimethylbutanamide]", "Kv7.2/7.3 Activity: increase over baseline in current": "++ (3-3.9 (++))"},
      {"smiles": "CC(C)(O)c1cc(F)c2nc(NC(=O)CC3CC(F)(F)C3(F)F)n(C3CCC3)c2c1", "note": "(single isomer, unassigned) [Example 466, N-(1-cyclobutyl-4-fluoro-6-(2-hydroxypropan-2-yl)-1H-benzo[d]imidazol-2-yl)-2-(2,2,3,3-tetrafluorocyclobutyl)acetamide]", "Kv7.2/7.3 Activity: increase over baseline in current": "++ (3-3.9 (++))"},
      {"smiles": "CC(C)(O)c1ccc2nc(NC(=O)CC(C)(C)C(F)(F)F)n(C34CC(C3)C4)c2c1", "note": "[Example 404, N-(1-(bicyclo[1.1.1]pentan-1-yl)-6-(2-hydroxypropan-2-yl)-1H-benzo[d]imidazol-2-yl)-4,4,4-trifluoro-3,3-dimethylbutanamide]", "Kv7.2/7.3 Activity: increase over baseline in current": "+ (1.2-2.9 (+))"},
      {"smiles": "CC(C)(CC(=O)Nc1nc2cccc(C#N)c2n1C1(C)CCC1)C1CC1", "note": "[Example 426, N-(7-cyano-1-(1-methylcyclobutyl)-1H-benzo[d]imidazol-2-yl)-3-cyclopropyl-3-methylbutanamide]", "Kv7.2/7.3 Activity: increase over baseline in current": "+++ (>4 (+++) fold increase over baseline)"},
      {"smiles": "CC1(n2c(NC(=O)CC(C)(C)C(F)(F)F)nc3ccc(OC(F)F)cc32)CCC1", "note": "[Example 366, N-(6-(difluoromethoxy)-1-(1-methylcyclobutyl)-1H-benzo[d]imidazol-2-yl)-4,4,4-trifluoro-3,3-dimethylbutanamide]", "Kv7.2/7.3 Activity: increase over baseline in current": "+ (1.2-2.9 (+))"},
      {"smiles": "CC(C)(C)n1c(NC(=O)CC(C)(C)C(F)(F)F)nc2c(F)cc(C#N)c(F)c21", "note": "[Example 349, N-(1-(tert-butyl)-6-cyano-4,7-difluoro-1H-benzo[d]imidazol-2-yl)-4,4,4-trifluoro-3,3-dimethylbutanamide]", "Kv7.2/7.3 Activity: increase over baseline in current": "++ (3-3.9 (++))"},
      {"smiles": "CC(C)(C)CC(=O)Nc1nc2c(F)cc(C(O)(CF)CF)cc2n1C1CCC1", "note": "[Example 479, N-(1-cyclobutyl-6-(1,3-difluoro-2-hydroxypropan-2-yl)-4-fluoro-1H-benzo[d]imidazol-2-yl)-3,3-dimethylbutanamide]", "Kv7.2/7.3 Activity: increase over baseline in current": "++ (3-3.9 (++))"}
    ]}
  ]
}
